Experimental data published in US20180305332A1, “Bispiperidinyl Derivatives as Liver X Receptor Beta Agonists, Compositions, and Their Use” (Merck Sharp & Dohme Corp., priority 2015, published 2018).

Columns and labels:
[1] = biological target: T1, GST tagged LXRalpha LBD (ligand binding domain) (Homo sapiens, UniProt Q13133); assay: LanthaScreen TR-FRET Liver X Receptor Coactivator Assay, LXR alpha-LBD; assay type: biochemical; details: relative to reference T0901317; for LXR alpha IP (nM) / EC50: Inflection Point (potency), co-activator recruitment; for Emax: read-out: LXR alpha act @ max dose (%); for EC50: read-out: LXR alpha IP
T1 construct: purchased Invitrogen pv4655
T1 sequence (Q13133 209-447 limits assumed): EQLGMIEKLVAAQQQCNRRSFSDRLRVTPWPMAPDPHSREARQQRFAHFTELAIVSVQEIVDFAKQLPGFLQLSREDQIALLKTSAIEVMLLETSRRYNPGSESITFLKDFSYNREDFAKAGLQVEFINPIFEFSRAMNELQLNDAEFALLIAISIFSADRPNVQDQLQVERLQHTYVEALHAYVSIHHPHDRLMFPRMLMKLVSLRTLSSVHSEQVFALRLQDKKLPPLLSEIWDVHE
Method in brief: (§1)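 GST-tagged human LXRα or LXRβ LBD was mixed with test compound, then fluorescein-labelled coactivator peptide and terbium anti-GST antibody added. After room-temperature incubation, TR-FRET was read. Inflection point and Emax expressed relative to reference dual agonist T0901317.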

[2] = biological target: T2, GST tagged LXRbeta LBD (ligand binding domain) (Homo sapiens, UniProt P55055); assay: LanthaScreen TR-FRET Liver X Receptor Coactivator Assay, LXR beta-LBD; assay type: biochemical; details: relative to reference T0901317; for EC50: Inflection Point (potency), co-activator recruitment, read-out: LXR beta IP; for Emax: read-out: LXR beta act @ max dose (%)
T2 construct: purchased Invitrogen pv4658.pps
T2 sequence (P55055 222-460 limits assumed): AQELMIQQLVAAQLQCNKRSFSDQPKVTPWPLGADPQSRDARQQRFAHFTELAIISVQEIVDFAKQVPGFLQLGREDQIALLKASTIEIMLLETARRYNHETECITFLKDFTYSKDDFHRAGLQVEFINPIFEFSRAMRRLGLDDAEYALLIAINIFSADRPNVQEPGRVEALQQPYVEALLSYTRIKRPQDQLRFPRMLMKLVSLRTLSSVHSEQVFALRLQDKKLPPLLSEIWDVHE
Method in brief: as §1

[3] = activity at max dose (efficacy)

With `CC1CCC(C)N1C(=O)c1ccc(N2CCC(C3CCN(C(=O)[C@](O)(c4ccccc4)C(F)(F)F)CC3)CC2)cc1Cl` (stereo partly drawn) [Example E-27, (2R)-3-(1′-{3-chloro-4-[(2,5-dimethylpyrrolidin-1-yl)carbonyl]phenyl}-4,4′-bipiperidin-1-yl)-1,1,1-trifluoro-3-oxo-2-phenylpropan-2-ol] the “LXR alpha IP (nM)” value [1] was “NO IP”, the Emax [1, 3] was 0% and the EC50 [2] was 53 nM. The Emax [2, 3] was 58%.
For `CN(C)C(=O)c1ccc(N2CCC(C3CCN(C(=O)C(C)(C)c4ccc(Cl)cc4Cl)CC3)CC2)cc1Cl` [Example A-60, 2-chloro-4-{1′-[2-(2,4-dichlorophenyl)-2-methylpropanoyl]-4,4′-bipiperidin-1-yl}-N,N-dimethylbenzamide], the EC50 [1] was 717 nM, the Emax [1, 3] was 32% and the EC50 [2] was 33 nM. The Emax [2, 3] was 109%.
`CN(Cc1noc(C2CC2)n1)C(=O)c1ccc(N2CCC(C3CCN(C(=O)[C@](O)(c4ccccc4)C(F)(F)F)CC3)CC2)cc1Cl` [Example E-54, 2-chloro-N-[(5-cyclopropyl-1,2,4-oxadiazol-3-yl)methyl]-N-methyl-4-{1′-[(2R)-3,3,3-trifluoro-2-hydroxy-2-phenylpropanoyl]-4,4′-bipiperidin-1-yl}benzamide] gave an EC50 [1] of 1460 nM, an Emax [1, 3] of 55% and an EC50 [2] of 35 nM. The Emax [2, 3] was 93%.
`C#CC(C)(C)C(=O)N1CCC(C2CCN(c3ccc(C(=O)N(C)C)c(Cl)c3)CC2)CC1` [Example A-11, 2-chloro-4-[1′-(2,2-dimethylbut-3-ynoyl)-4,4′-bipiperidin-1-yl]-N,N-dimethylbenzamide] showed an EC50 [1] of 2100 nM, an Emax [1, 3] of 62% and an EC50 [2] of 512 nM. It also gave an Emax [2, 3] of 125%.
Compound `O=C(c1ccc(N2CCC(C3CCN(C(=O)[C@](O)(c4ccccc4)C(F)(F)F)CC3)CC2)cc1Cl)N1CC(N2CCCC2)C1` [Example E-42, (2R)-3-(1′-{3-chloro-4-[(3-pyrrolidin-1-ylazetidin-1-yl)carbonyl]phenyl}-4,4′-bipiperidin-1-yl)-1,1,1-trifluoro-3-oxo-2-phenylpropan-2-ol] has an EC50 [1] of 1460 nM, an Emax [1, 3] of 25% and an EC50 [2] of 98 nM. The Emax [2, 3] was 39%.
`O=C(c1ccc(N2CCC(C3CCN(C(=O)[C@](O)(c4ccccc4)C(F)(F)F)CC3)CC2)cc1Cl)N1CC(F)C1` [Example E-45, (2R)-3-(1′-{3-chloro-4-[(3-fluoroazetidin-1-yl)carbonyl]phenyl}-4,4′-bipiperidin-1-yl)-1,1,1-trifluoro-3-oxo-2-phenylpropan-2-ol] showed an EC50 [1] of 1020 nM, an Emax [1, 3] of 12% and an EC50 [2] of 414 nM. The Emax [2, 3] was 68%.
With `O=C(c1ccc(N2CCC(C3CCN(C(=O)[C@](O)(c4ccccc4)C(F)(F)F)CC3)CC2)cc1Cl)N1CCCC1` [Example E-20] the “LXR alpha IP (nM)” value [1] was “NO IP”, the Emax [1, 3] was 25% and the EC50 [2] was 197 nM. The Emax [2, 3] was 78%.
`CC(C)(C)OC(=O)NC1CN(C(=O)c2ccc(N3CCC(C4CCN(C(=O)[C@](O)(c5ccccc5)C(F)(F)F)CC4)CC3)cc2Cl)C1` [Example E-56, tert-butyl {1-[(2-chloro-4-{1′-[(2R)-3,3,3-trifluoro-2-hydroxy-2-phenylpropanoyl]-4,4′-bipiperidin-1-yl}phenyl)carbonyl]azetidin-3-yl}carbamate] showed an EC50 [1] of 488 nM, an Emax [1, 3] of 45% and an EC50 [2] of 21 nM. The Emax [2, 3] was 89%.
With `Cc1ccc(F)c(C(=O)N2CCC(C3CCN(c4ccc(C(=O)N(C)C)c(Cl)c4)CC3)CC2)c1F` [Example A-38, 2-chloro-4-{1′-[(2,6-difluoro-3-methylphenyl)carbonyl]-4,4′-bipiperidin-1-yl}-N,N-dimethylbenzamide] the EC50 [1] was 3450 nM, the Emax [1, 3] was 22% and the EC50 [2] was 164 nM. For the same compound, the Emax [2, 3] was 85%.
`O=C(c1ccc(N2CCC(C3CCN(C(=O)[C@](O)(c4ccccc4)C(F)(F)C(F)(F)F)CC3)CC2)cc1Cl)N1CCC[C@H]1CO` [Example E-66, (2R)-1-[1′-(3-chloro-4-{[(2S)-2-(hydroxymethyl)pyrrolidin-1-yl]carbonyl}phenyl)-4,4′-bipiperidin-1-yl]-3,3,4,4,4-pentafluoro-1-oxo-2-phenylbutan-2-ol] was tested, and the EC50 [1] was 211 nM, the Emax [1, 3] was 72% and the EC50 [2] was 12 nM. It also gave an Emax [2, 3] of 126%.
`O=C(c1ccc(N2CCC(C3CCN(C(=O)[C@](O)(c4ccccc4)C(F)(F)F)CC3)CC2)cc1Cl)N1CCC[C@@H]1CO` [Example E-23, (2R)-3-[1′-(3-chloro-4-{[(2R)-2-(hydroxymethyl)pyrrolidin-1-yl]carbonyl}phenyl)-4,4′-bipiperidin-1-yl]-1,1,1-trifluoro-3-oxo-2-phenylpropan-2-ol] showed an EC50 [1] of 1780 nM, an Emax [1, 3] of 25% and an EC50 [2] of 125 nM. The Emax [2, 3] was 72%.
Compound `Cc1nc(CCN(C)C(=O)c2ccc(N3CCC(C4CCN(C(=O)[C@](O)(c5ccccc5)C(F)(F)F)CC4)CC3)cc2Cl)no1` [Example E-55, 2-chloro-N-methyl-N-[2-(5-methyl-1,2,4-oxadiazol-3-yl)ethyl]-4-{1′-[(2R)-3,3,3-trifluoro-2-hydroxy-2-phenylpropanoyl]-4,4′-bipiperidin-1-yl}benzamide] has an EC50 [1] of 1110 nM, an Emax [1, 3] of 41% and an EC50 [2] of 66 nM. It also gave an Emax [2, 3] of 106%.
For `CCC1CCCN1C(=O)c1ccc(N2CCC(C3CCN(C(=O)[C@](O)(c4ccccc4)C(F)(F)F)CC3)CC2)cc1Cl` (stereo partly drawn) [Example E-30, (2R)-3-(1′-{3-chloro-4-[(2-ethylpyrrolidin-1-yl)carbonyl]phenyl}-4,4′-bipiperidin-1-yl)-1,1,1-trifluoro-3-oxo-2-phenylpropan-2-ol], the EC50 [1] was 1520 nM, the Emax [1, 3] was 15% and the EC50 [2] was 143 nM. The Emax [2, 3] was 74%.
For `CC(C)C(O)(C(=O)N1CCC(C2CCN(c3ccc(C(=O)N(C)C)c(Cl)c3)CC2)CC1)C(F)(F)C(F)(F)F` (stereo not drawn) [Example A-26, 2-chloro-N,N-dimethyl-4-{1′-[3,3,4,4,4-pentafluoro-2-hydroxy-2-(1-methylethyl)butanoyl]-4,4′-bipiperidin-1-yl}benzamide], the EC50 [1] was 967 nM, the Emax [1, 3] was 45% and the EC50 [2] was 112 nM. For the same compound, the Emax [2, 3] was 103%.
For `CN(C)C(=O)c1ccc(N2CCC(C3CCN(C(=O)C(O)(C4CC4)C(F)(F)F)CC3)CC2)cc1Cl` (single isomer, unassigned) [Example A-9, 2-chloro-4-[1′-(2-cyclopropyl-3,3,3-trifluoro-2-hydroxypropanoyl)-4,4′-bipiperidin-1-yl]-N,N-dimethylbenzamide], the EC50 [1] was 1200 nM, the “LXR alpha act @ max dose (%)” value [1, 3] was 56% and the EC50 [2] was 116 nM. The “LXR beta act @ max dose (%)” value [2, 3] was 110%.
In the case of `CN(C)C(=O)c1ccc(N2CCC(C3CCN(S(=O)(=O)c4ccccc4)CC3)CC2)cc1Cl` [Example A-99, 2-chloro-N,N-dimethyl-4-[1′-(phenylsulfonyl)-4,4′-bipiperidin-1-yl]benzamide], the “LXR alpha IP (nM)” value [1] is reported as “NO IP”, the Emax [1, 3] is reported as 0% and the EC50 [2] is reported as 496 nM. For the same compound, the Emax [2, 3] was 54%.
`COc1cccc(C2(C(=O)N3CCC(C4CCN(c5ccc(C(=O)N(C)C)c(Cl)c5)CC4)CC3)CCCC2)c1` [Example A-78, 2-chloro-4-(1′-{[1-(3-methoxyphenyl)cyclopentyl]carbonyl}-4,4′-bipiperidin-1-yl)-N,N-dimethylbenzamide] was tested, and the “LXR alpha IP (nM)” value [1] was “NO IP”, the Emax [1, 3] was 15% and the EC50 [2] was 210 nM. It also gave an Emax [2, 3] of 81%.
`CC(C)C(O)(C(=O)N1CCC(C2CCN(c3cc(Cl)c(C(=O)N(C)C)c(Cl)c3)CC2)CC1)C(F)(F)F` (stereo not drawn) [Example A-34, 2,6-dichloro-4-{1′-[2-hydroxy-3-methyl-2-(trifluoromethyl)butanoyl]-4,4′-bipiperidin-1-yl}-N,N-dimethylbenzamide] showed an EC50 [1] of 1350 nM, an Emax [1, 3] of 46% and an EC50 [2] of 119 nM. The Emax [2, 3] was 103%.
For `C=C(C)C(O)(C(=O)N1CCC(C2CCN(c3ccc(C(=O)N(C)C)c(Cl)c3)CC2)CC1)C(F)(F)F` (stereo not drawn) [Example A-31, 2-chloro-4-{1′-[2-hydroxy-3-methyl-2-(trifluoromethyl)but-3-enoyl]-4,4′-bipiperidin-1-yl}-N,N-dimethylbenzamide], the EC50 [1] was 362 nM, the Emax [1, 3] was 27% and the EC50 [2] was 61 nM. For the same compound, the Emax [2, 3] was 86%.
In the case of `O=C(c1ccc(N2CCC(C3CCN(C(=O)[C@](O)(c4ccccc4)C(F)(F)F)CC3)CC2)cc1Cl)N1CCC(O)C1` (stereo partly drawn) [Example E-24, 1-[(2-chloro-4-{1′-[(2R)-3,3,3-trifluoro-2-hydroxy-2-phenylpropanoyl]-4,4′-bipiperidin-1-yl}phenyl)carbonyl]pyrrolidin-3-ol], the EC50 [1] is reported as 3090 nM, the Emax [1, 3] is reported as 27% and the EC50 [2] is reported as 323 nM. The Emax [2, 3] was 76%.
In the case of `CN(C)C(=O)c1ccc(N2CCC(C3CCN(C(=O)C4(c5ccc(O)cc5)CCCC4)CC3)CC2)cc1Cl` [Example A-67, 2-chloro-4-(1′-{[1-(4-hydroxyphenyl)cyclopentyl]carbonyl}-4,4′-bipiperidin-1-yl)-N,N-dimethylbenzamide], the “LXR alpha IP (nM)” value [1] is reported as “NO IP”, the Emax [1, 3] is reported as 26% and the EC50 [2] is reported as 107 nM. It also gave an Emax [2, 3] of 75%.
